Data reported in US20250009766A1, “CA[…] TREATMENT OF SEIZURES AND EPILEPSY” (The Regents of the University of California, priority 2021, published 2025).
“Also recorded” adds a separate entry of the source.

How the values were obtained:
Format in all cases: in vivo
male CF1 mice [1] = test: Mouse pentylenetetrazol (PTZ) test
Experimental: (§1) Animals. Male NIH Swiss or CF1 mice (Charles-Rivers, 22-34g) were used in the present study. In most of the experiments, male CF1 mice were used. In the experiment exploring the strain difference between CBD and CBG efficacy in the MES test, these compounds were also tested in male NIH Swiss mice. All experiments involving animals complied with the ARRIVE guidelines of the National Centre for the Replacement, Refinement, and Reduction of Animals in Research and were performed in accordance with the National Institutes of Health Guide for the Care and Use of Laboratory Animals (NIH publication No. 8023, revised in 1978) under protocols approved by the University of California, Davis, Institutional Animal Care and Use Committee.
(§2) All the cannabinoids were prepared in ethanol: Cremophor: saline in the ratio of 2:1:17. These were administered Intraperitoneally (IP) in a dose volume of 10 ml/kg.
Mouse pentylenetetrazol (PTZ) test. Sixty min after IP injection of either cannabidiol (CBD) or cannabigerol (CBG) in male CF1 mice, the animals were challenged with 80 or 100 mg/kg PTZ delivered via intraperitoneal (IP) route of administration. The onset of myoclonic jerks, generalized clonus, tonus/tonic extension, and mortality was observed. The percentage of animals was further calculated that underwent these phases caused by PTZ. Failure to observe such phases or delayed onset is considered as protection.

male NIH Swiss mice = test: Mouse maximal electroshock (MES) test, male NIH Swiss mice (strain difference); details: for Percentage protection from Tonic Hind limb Extension: Male NIH Swiss mice; for effect in MES test: male NIH Swiss mice
Experimental: as §1, §2
(§3) Mouse maximal electroshock test. Samples of CBD, both from decarboxylation of cannabidiolic acid (CBDA) and a commercial source, were tested in parallel as a comparator. Samples of CBD and CBG were prepared by decarboxylating their respective active precursors CBDA and cannabigerolic acid (CBGA; 95+% pure) by heating at 102° C. (215° F.) for 60 min. The precursor compounds were isolated from hemp. For comparison, the antiseizure activity of pure, commercial, hemp-derived CBD and chemically synthesized CBG in crystalline form was also determined in the MES test. Also investigated was whether CBDA and CBGA have antiseizure potential at the highest dose tested (150 mg/kg) in this model. Male CF1 mice were used in the current study. Sixty min after IP injection of the cannabinoids, the animals were subjected to a 0.2-s, 60-Hz, 50-mA electrical stimulus delivered with corneal electrodes (5 mm diameter stainless steel balls) wetted with 0.9% saline. Animals failing to show THLE were scored as protected. In the time-response curve experiment, CBG was administered at different times before the MES test. In most of the experiments, male CF1 mice were used. In the experiment exploring the strain difference between CBD and CBG efficacy in the MES test, these compounds were additionally tested in male NIH Swiss mice.

male CF1 mice [2] = test: Mouse maximal electroshock (MES) test, male CF1 mice; details: for Percentage protection from Tonic Hind limb Extension: Male CF1 mice
Experimental: as §1, §2, §3

[3] = PTZ 80 mg/kg IP, treatment 100 mg/kg IP 1 h before
[4] = PTZ 80 mg/kg IP, treatment 150 mg/kg IP 1 h before
[5] = PTZ 100 mg/kg IP, treatment 150 mg/kg IP 1 h before
[6] = dose 100, 1 h before MES (0.2-s, 60-Hz, 50-mA)
[7] = dose 150, 1 h before MES (0.2-s, 60-Hz, 50-mA)
[8] = male CF1 mice, IP, 60 min before MES
[9] = protection from THLE, male CF1 mice, IP, 60 min before MES
[10] = 50 mg/kg IP, 60 min before MES, male CF1 mice
[11] = 100 mg/kg IP, 60 min before MES, male CF1 mice
[12] = 150 mg/kg IP, 60 min before MES, male CF1 mice
[13] = 200 mg/kg IP, 60 min before MES, male CF1 mice
[14] = high dose PTZ test (100 mg/kg), treatment 150 mg/kg IP

SMILES: CCCCCc1cc(O)c(C/C=C(\C)CCC=C(C)C)c(O)c1 [CBG, cannabigerol]
- Death time (s) (male CF1 mice [1]; [3]): None
- Onset of generalized clonus (male CF1 mice [1]; [3]): 199.1 ± 90.6 s
- Onset of jerks (male CF1 mice [1]; [3]): 101.1 ± 50.7 s
- Onset of tonus (s) (male CF1 mice [1]; [3]): None
- Percentage animals having generalized clonus (male CF1 mice [1]; [3]): 87.5%
- Percentage animals having tonus (male CF1 mice [1]; [3]): None
- Percentage mortality (male CF1 mice [1]; [3]): 0%
- Percentage of animals having myoclonic jerks (male CF1 mice [1]; [3]): 87.5%
- Death time (s) (male CF1 mice [1]; [4]): None
- Onset of generalized clonus (male CF1 mice [1]; [4]): 117.8 ± 46.8 s
- Onset of jerks (male CF1 mice [1]; [4]): 93 ± 26.6 s
- Onset of tonus (male CF1 mice [1]; [4]): 852.5 ± 170.5 s
- Percentage animals having generalized clonus (male CF1 mice [1]; [4]): 62.5%
- Percentage animals having tonus (male CF1 mice [1]; [4]): 25%
- Percentage mortality (male CF1 mice [1]; [4]): 0%
- Percentage of animals having myoclonic jerks (male CF1 mice [1]; [4]): 100%
- Death time (male CF1 mice [1]; [5]): 1082.6 ± 265.5 s
- Onset of generalized clonus (male CF1 mice [1]; [5]): 200.8 ± 105.9 s
- Onset of jerks (male CF1 mice [1]; [5]): 50.1 ± 3.3 s
- Onset of tonus (male CF1 mice [1]; [5]): 1351.3 ± 410.7 s
- Percentage animals having generalized clonus (male CF1 mice [1]; [5]): 100%
- Percentage animals having tonus (male CF1 mice [1]; [5]): 100%
- Percentage mortality (male CF1 mice [1]; [5]): 62.5%
- Percentage of animals having myoclonic jerks (male CF1 mice [1]; [5]): 100%
- overall effect in PTZ seizure test (male CF1 mice [1]; PTZ IP, male CF1 mice): had no effect
- protection from mortality (male CF1 mice [1]; high dose PTZ): protected some animals from mortality
- Percentage protection from Tonic Hind limb Extension (male NIH Swiss mice; [6]): 12.5%
- Percentage protection from Tonic Hind limb Extension (male NIH Swiss mice; [7]): 12.5%
- effect in MES test (male NIH Swiss mice): not protective
- Percentage protection from Tonic Hind limb Extension (male CF1 mice [2]; [6]): 62.5%
- Percentage protection from Tonic Hind limb Extension (male CF1 mice [2]; [7]): 75%
- effect in MES test (male CF1 mice [2]; male CF1 mice): protected animals from Tonic Hindlimb Extension (THLE); also recorded: effective
- time of maximum response (protection from THLE) after administration (male CF1 mice [2]; single IP injection of 100 mg/kg, male CF1 mice, tested 15-240 min): 60 to 120 min

SMILES: C=C(C)[C@@H]1CCC(C)=C[C@H]1c1c(O)cc(CCCCC)cc1O [CBD obtained from CBDA isolates, cannabidiol]
- doses at which animals were protected from THLE (male CF1 mice [2]; [8]): 25 to 150 mg/kg
- ED50 (mg/kg, IP) (male CF1 mice [2]; [9]): 62.7 ± 5.6 mg/kg

SMILES: CCCCCc1cc(O)c2c(c1)OC(C)(CCC=C(C)C)C=C2 (stereo not drawn) [CBC oil, cannabichromene]
- Percentage Protection (male CF1 mice [2]; [10]): 11.1%
- Percentage Protection (male CF1 mice [2]; [11]): 12.5%
- Percentage Protection (male CF1 mice [2]; [12]): 12.5%
- Percentage Protection (male CF1 mice [2]; [13]): 25%
- fraction of animals protected (male CF1 mice [2]; 250 mg/kg IP, 60 min before MES, male CF1 mice): 25%
- potency relative to CBD and CBG in MES test (male CF1 mice [2]; [8]): less potent than CBD and CBG

SMILES: CCCCCc1cc(O)c(C/C=C(\C)CCC=C(C)C)c(O)c1 [CBG obtained from CBGA, cannabigerol]
- doses at which animals were protected from THLE (male CF1 mice [2]; [8]): 65 to 200 mg/kg
- ED50 (male CF1 mice [2]; [9]): 99 ± 7.01 mg/kg

SMILES: C=C(C)[C@@H]1CCC(C)=C[C@H]1c1c(O)cc(CCCCC)c(C(=O)O)c1O [Cannabidiolic acid (CBDA), cannabidiolic acid]
- Percentage Protection (male CF1 mice [2]; [12]): 0%
- antiseizure activity (male CF1 mice [2]; highest dose tested (150 mg/kg), male CF1 mice): no antiseizure activity

SMILES: C=C(C)[C@@H]1CCC(C)=C[C@H]1c1c(O)cc(CCCCC)cc1O [CBD, cannabidiol]
- Death time (s) (male CF1 mice [1]; [3]): None
- Onset of generalized clonus (male CF1 mice [1]; [3]): 333.9 ± 174.3 s
- Onset of jerks (male CF1 mice [1]; [3]): 138.1 ± 61.9 s
- Onset of tonus (s) (male CF1 mice [1]; [3]): None
- Percentage animals having generalized clonus (male CF1 mice [1]; [3]): 87.5%
- Percentage animals having tonus (male CF1 mice [1]; [3]): None
- Percentage mortality (male CF1 mice [1]; [3]): 0%
- Percentage of animals having myoclonic jerks (male CF1 mice [1]; [3]): 100%
- Death time (s) (male CF1 mice [1]; [4]): None
- Onset of generalized clonus (male CF1 mice [1]; [4]): 612.5 ± 515.5 s
- Onset of jerks (male CF1 mice [1]; [4]): 95.6 ± 13.3 s
- Onset of tonus (s) (male CF1 mice [1]; [4]): None
- Percentage animals having generalized clonus (male CF1 mice [1]; [4]): 25%
- Percentage animals having tonus (male CF1 mice [1]; [4]): None
- Percentage mortality (male CF1 mice [1]; [4]): 0%
- Percentage of animals having myoclonic jerks (male CF1 mice [1]; [4]): 100%
- Death time (s) (male CF1 mice [1]; [5]): None
- Onset of generalized clonus (male CF1 mice [1]; [5]): 329.3 ± 152.3 s
- Onset of jerks (male CF1 mice [1]; [5]): 63.6 ± 4.8 s
- Onset of tonus (male CF1 mice [1]; [5]): 1362.5 ± 888.5 s
- Percentage animals having generalized clonus (male CF1 mice [1]; [5]): 100%
- Percentage animals having tonus (male CF1 mice [1]; [5]): 25%
- Percentage mortality (male CF1 mice [1]; [5]): 0%
- Percentage of animals having myoclonic jerks (male CF1 mice [1]; [5]): 100%
- effect on generalized clonus (male CF1 mice [1]; high dose PTZ test (100 mg/kg)): no difference
- latency to onset of myoclonic jerks (male CF1 mice [1]; [14]): increased the latency to onset of myoclonic jerks
- protection from tonus phase and mortality (male CF1 mice [1]; [14]): protected animals from undergoing tonus phase and mortality
- protection from generalized clonus (male CF1 mice [1]; low dose PTZ test (80 mg/kg, IP), treatment 150 mg/kg IP): effective in protecting animals from generalized clonus
- Percentage protection from Tonic Hind limb Extension (male NIH Swiss mice; [6]): 12.5%
- Percentage protection from Tonic Hind limb Extension (male NIH Swiss mice; [7]): 12.5%
- effect in MES test (male NIH Swiss mice): not protective
- Percentage protection from Tonic Hind limb Extension (male CF1 mice [2]; [6]): 100%
- Percentage protection from Tonic Hind limb Extension (male CF1 mice [2]; [7]): 100%
- effect in MES test (male CF1 mice [2]; male CF1 mice): protected animals from Tonic Hindlimb Extension (THLE); also recorded: effective

SMILES: CCCCCc1cc(O)c(C/C=C(\C)CCC=C(C)C)c(O)c1C(=O)O [Cannabigerolic acid (CBGA), cannabigerolic acid]
- Percentage Protection (male CF1 mice [2]; [12]): 25%

SMILES: CCCCCc1cc(O)c(C/C=C(\C)CCC=C(C)C)c(O)c1 [cannabigerol]
- Percentage Protection (male CF1 mice [2]; [11]): 62.5%
- Percentage Protection (male CF1 mice [2]; [12]): 75%
- Percentage Protection (male CF1 mice [2]; [13]): 62.5%

SMILES: C=C(C)[C@@H]1CCC(C)=C[C@H]1c1c(O)cc(CCCCC)cc1O [Crystalline hemp derived CBD, cannabidiol]
- Percentage Protection (male CF1 mice [2]; [10]): 0%
- Percentage Protection (male CF1 mice [2]; 65 mg/kg IP, 60 min before MES, male CF1 mice): 37.5%
- Percentage Protection (male CF1 mice [2]; 75 mg/kg IP, 60 min before MES, male CF1 mice): 37.5%
- Percentage Protection (male CF1 mice [2]; 85 mg/kg IP, 60 min before MES, male CF1 mice): 50%
- Percentage Protection (male CF1 mice [2]; [11]): 75%
- Percentage Protection (male CF1 mice [2]; [12]): 75%
- ED50 (mg/kg, IP) (male CF1 mice [2]; protection from THLE, male CF1 mice, IP, 60 min before MES, listed as commercial CBD): 83.7 ± 5.7 mg/kg
